GI50 and IC50 data for 10 compounds are collected here from ChEMBL document CHEMBL4138231 (Eur J Med Chem, 2018).

In one assay the test system is Huh-7. The assay can be described thus: Antiproliferative activity against human HuH7 cells after 72 hrs by CCK8 assay. It is filed as functional. Background: Formazan colour is commonly taken as a measure of viable cells.
Another assay relates to A549. The assay can be described thus: Antiproliferative activity against human A549 cells after 72 hrs by CCK8 assay. It is filed as functional.
The test system of another assay is K562. The assay is described as follows: Antiproliferative activity against human K562 cells after 72 hrs by CCK8 assay. The format is functional. Particulars: K562, 72 h.
For assay [1], the target named is Serine/threonine-protein kinase PLK3 (Homo sapiens, UniProt Q9H4B4). The assay can be described thus: Inhibition human recombinant GST-tagged Plk3 catalytic domain (58 to 340 residues) expressed in baculovirus expression system after 1 hr by FRET-based Z'-Lyte assay.
The next assay has as its system MCF7. The assay is described as follows: Antiproliferative activity against human MCF7 cells after 72 hrs by CCK8 assay. The format is functional.
The test system of the next assay is NCI-H1975. The assay is described as follows: Antiproliferative activity against human NCI-H1975 cells after 72 hrs by CCK8 assay. The format is functional.
The target in assay [2] is Serine/threonine-protein kinase PLK2 (Homo sapiens, UniProt Q9NYY3). The assay is described as follows: Inhibition human recombinant full length GST-tagged Plk2 expressed in baculovirus expression system after 1 hr by FRET-based Z'-Lyte assay.
Another assay deals with HeLa. The assay can be described thus: Antiproliferative activity against human HeLa cells after 72 hrs by CCK8 assay. It is filed as functional.
Assay [3] concerns the target Serine/threonine-protein kinase PLK1 (Homo sapiens, UniProt P53350). The assay can be described thus: Inhibition human recombinant full length His-tagged Plk1 expressed in baculovirus expression system after 1 hr by FRET-based Z'-Lyte assay.

Usually GI50 stands for the concentration that inhibits growth by half. By IC50 is commonly meant the point on the concentration scale where inhibition reaches its midpoint.

Molecules are shown by their SMILES. Active and inactive are the calls of the source. The rule behind the calls is not given here. Some results are limits rather than exact numbers.

Chain of Serine/threonine-protein kinase PLK3 (Q9H4B4 whole entry, the tested form may be a part): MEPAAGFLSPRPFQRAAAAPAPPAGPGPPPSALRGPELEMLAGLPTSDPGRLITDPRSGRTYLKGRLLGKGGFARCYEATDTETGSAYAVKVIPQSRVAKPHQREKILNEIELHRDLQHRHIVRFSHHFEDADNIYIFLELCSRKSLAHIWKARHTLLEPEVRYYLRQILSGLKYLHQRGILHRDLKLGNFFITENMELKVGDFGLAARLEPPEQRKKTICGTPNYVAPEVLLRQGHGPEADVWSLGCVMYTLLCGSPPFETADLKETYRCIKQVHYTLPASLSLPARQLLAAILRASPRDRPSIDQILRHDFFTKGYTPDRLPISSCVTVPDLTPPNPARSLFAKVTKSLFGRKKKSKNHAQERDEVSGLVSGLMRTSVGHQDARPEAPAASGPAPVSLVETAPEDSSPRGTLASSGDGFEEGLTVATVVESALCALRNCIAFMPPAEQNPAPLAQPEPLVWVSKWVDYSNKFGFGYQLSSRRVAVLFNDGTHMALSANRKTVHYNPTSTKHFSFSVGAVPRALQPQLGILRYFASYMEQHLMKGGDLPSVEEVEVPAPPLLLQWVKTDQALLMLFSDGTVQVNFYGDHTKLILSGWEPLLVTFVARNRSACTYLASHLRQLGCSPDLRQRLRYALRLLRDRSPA
Chain of Serine/threonine-protein kinase PLK2 (Q9NYY3 whole entry): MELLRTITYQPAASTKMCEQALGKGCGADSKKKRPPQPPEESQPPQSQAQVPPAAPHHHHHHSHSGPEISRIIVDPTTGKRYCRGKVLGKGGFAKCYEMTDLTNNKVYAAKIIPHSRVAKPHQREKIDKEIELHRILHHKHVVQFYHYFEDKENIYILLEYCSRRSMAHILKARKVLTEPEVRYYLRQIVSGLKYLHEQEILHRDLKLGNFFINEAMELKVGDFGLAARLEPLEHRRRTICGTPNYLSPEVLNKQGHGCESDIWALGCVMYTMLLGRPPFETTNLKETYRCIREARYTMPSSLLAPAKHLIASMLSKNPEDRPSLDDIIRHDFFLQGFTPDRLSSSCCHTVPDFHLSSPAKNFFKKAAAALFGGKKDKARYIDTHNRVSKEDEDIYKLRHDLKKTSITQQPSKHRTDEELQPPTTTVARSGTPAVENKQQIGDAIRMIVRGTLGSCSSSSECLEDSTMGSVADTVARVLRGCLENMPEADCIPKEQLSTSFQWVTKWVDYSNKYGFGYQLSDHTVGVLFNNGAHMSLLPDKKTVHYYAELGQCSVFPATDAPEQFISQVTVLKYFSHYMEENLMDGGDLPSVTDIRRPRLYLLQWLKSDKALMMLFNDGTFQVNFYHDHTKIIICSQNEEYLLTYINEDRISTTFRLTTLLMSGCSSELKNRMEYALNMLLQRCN
Chain of Serine/threonine-protein kinase PLK1 (P53350 whole entry): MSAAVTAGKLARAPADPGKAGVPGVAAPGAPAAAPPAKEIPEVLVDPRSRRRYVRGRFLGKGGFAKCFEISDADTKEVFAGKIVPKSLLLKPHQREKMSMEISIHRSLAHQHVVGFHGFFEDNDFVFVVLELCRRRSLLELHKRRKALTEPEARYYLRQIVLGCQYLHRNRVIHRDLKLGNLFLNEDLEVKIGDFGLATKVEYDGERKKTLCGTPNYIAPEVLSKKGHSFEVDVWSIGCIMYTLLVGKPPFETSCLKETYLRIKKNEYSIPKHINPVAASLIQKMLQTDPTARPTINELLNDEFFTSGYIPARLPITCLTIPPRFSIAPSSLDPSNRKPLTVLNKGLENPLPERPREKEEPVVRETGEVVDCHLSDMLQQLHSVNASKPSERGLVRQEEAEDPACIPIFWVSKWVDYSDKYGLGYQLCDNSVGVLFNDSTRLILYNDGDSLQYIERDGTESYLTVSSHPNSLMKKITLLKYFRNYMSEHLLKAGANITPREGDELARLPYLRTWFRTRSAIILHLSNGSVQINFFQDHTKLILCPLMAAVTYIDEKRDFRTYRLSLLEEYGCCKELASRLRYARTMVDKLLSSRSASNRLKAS

With `CCC1C(=O)N(C)c2cnc(-n3ccc4cc(C(N)=O)ccc43)nc2N1c1ccn(C)n1` (racemic), the GI50 entry in the assay on Huh-7, in the assay on MCF7 and with NCI-H1975 was “inactive” throughout. Besides, the GI50 in the assay with A549 (A549, 72 h) was found to be 39.5 µM; in the assay on K562, 31.3 µM; in the assay with HeLa, 27.4 µM. In addition, the IC50 in [1] is > 10 µM; in assay [2] it was 0.384 µM.
As for `CCC1C(=O)N(C)c2cnc(-n3ccc4cc(F)ccc43)nc2N1c1ccn(C)n1` (racemic), the IC50 in [3] was > 10 µM; in assay [1], > 10 µM; in [2], 1.5 µM. Moreover, the GI50 result in the assay on Huh-7, in the assay on A549 and with HeLa was “inactive” in each case. Besides, the GI50 in the assay with K562 amounted to 6.07 µM; with MCF7 (MCF7, 72 h), 24.7 µM; in the assay with NCI-H1975 (NCI-H1975, 72 h), 28.6 µM.
On to `CCCNC(=O)c1ccc2c(ccn2-c2ncc3c(n2)N(c2ccn(C)n2)C(CC)C(=O)N3C)c1` (racemic), for which the GI50 in the assay with Huh-7 (Huh-7, 72 h) amounted to 7.28 µM; in the assay on K562 it was 8.27 µM; in the assay with MCF7 (MCF7, 72 h) it was 6.42 µM; in the assay with NCI-H1975 (NCI-H1975, 72 h), 11 µM; in the assay on HeLa, 6.16 µM. Further, the GI50 entry with A549 is “inactive”. Besides, the IC50 in assay [1] was > 10 µM; in [2] it was 0.207 µM.
With `CCCCNC(=O)c1ccc2c(ccn2-c2ncc3c(n2)N(c2ccn(C)n2)C(CC)C(=O)N3C)c1` (racemic), the GI50 turned out to be 8.67 µM in the assay on Huh-7 (Huh-7, 72 h); 37.3 µM in the assay on A549 (A549, 72 h); 14.1 µM with K562; 8.99 µM with MCF7 (MCF7, 72 h); 12 µM with NCI-H1975 (NCI-H1975, 72 h); 4.26 µM in the assay with HeLa. Also, the IC50 in [1] was > 10 µM; in [2] it was 0.159 µM.
Turning to `CCC1C(=O)N(C)c2cnc(-n3ccc4cc(C(=O)NC)ccc43)nc2N1c1ccn(C)n1` (racemic), the GI50 was 13.2 µM with Huh-7 (Huh-7, 72 h); 43.1 µM in the assay on A549 (A549, 72 h); 13.3 µM in the assay on K562; 35.4 µM with MCF7 (MCF7, 72 h); 35.7 µM in the assay on NCI-H1975 (NCI-H1975, 72 h); 6.33 µM in the assay on HeLa. The results for the IC50 in assay [1] and in [2] were > 10 µM and 0.218 µM, respectively.
As to `CCNC(=O)c1ccc2c(ccn2-c2ncc3c(n2)N(c2ccn(C)n2)C(CC)C(=O)N3C)c1` (racemic), the GI50 was found to be 20.3 µM with Huh-7 (Huh-7, 72 h); 21.7 µM in the assay on A549 (A549, 72 h); 12.8 µM with K562; 13.2 µM with MCF7 (MCF7, 72 h); 11.1 µM in the assay on HeLa. The IC50 was > 10 µM in [1] and 0.243 µM in assay [2]. For the same compound, the GI50 result in the assay on NCI-H1975 was “inactive”.
With `CC[C@@H]1C(=O)N(C)c2cnc(-n3ccc4cc(F)ccc43)nc2N1C1CCCC1`, the GI50 is 16 µM in the assay with Huh-7 (Huh-7, 72 h); 21.2 µM in the assay on K562; 46.5 µM with NCI-H1975 (NCI-H1975, 72 h). Besides, the GI50 result with A549, in the assay with MCF7 and in the assay on HeLa was “inactive” each time. Besides, the IC50 in assay [1] was > 20 µM; in assay [2], 0.969 µM.
As to `CCC1C(=O)N(C)c2cnc(-n3ccc4cc(C(=O)NCC(C)C)ccc43)nc2N1c1ccn(C)n1` (racemic), the GI50 with Huh-7 (Huh-7, 72 h) was 5.07 µM; in the assay with A549 (A549, 72 h), 19.2 µM; with K562, 5.6 µM; in the assay with MCF7 (MCF7, 72 h), 4.81 µM; in the assay on NCI-H1975 (NCI-H1975, 72 h), 10.2 µM; in the assay on HeLa, 4.97 µM. Besides, the 50% inhibitory concentration (IC50) in assay [1] is > 10 µM; in [2], 0.159 µM.
Take `CC[C@@H]1C(=O)N(C)c2cnc(-n3ccc4cc(C(=O)NC5CCCC5)ccc43)nc2N1C1CCCC1`: the GI50 in the assay on Huh-7 (Huh-7, 72 h) was determined as 0.259 µM; with A549 (A549, 72 h), 0.67 µM; in the assay on K562, 0.414 µM; with MCF7 (MCF7, 72 h) it was 0.795 µM; with NCI-H1975 (NCI-H1975, 72 h) it was 0.856 µM; with HeLa it was 0.247 µM. For the same compound, the IC50 in assay [1] is > 20 µM; in assay [2] it was 0.00706 µM.
In the case of `CCC1C(=O)N(C)c2cnc(-n3ccc4cc(C(=O)NC(C)C)ccc43)nc2N1c1ccn(C)n1` (racemic), the GI50 is 6.74 µM in the assay with Huh-7 (Huh-7, 72 h); 22 µM in the assay with A549 (A549, 72 h); 8.91 µM with K562; 8.42 µM in the assay on MCF7 (MCF7, 72 h); 12.2 µM in the assay on NCI-H1975 (NCI-H1975, 72 h); 4.35 µM with HeLa. Moreover, the IC50 in assay [1] is > 10 µM; in assay [2], 0.124 µM.
